The source of these data is patent US20220242846A1, “ISOINDOLINONE COMPOUNDS” (Monte Rosa Therapeutics AG, priority 2019, published 2022).

What all share (format): cell-based
In one experiment the target is T1, IKZF1 (Homo sapiens, UniProt Q13422).
T1 construct: MM1S cells were purchased from ATCC (cat. Number CRL-2974); endogenous in cells; host or cells: MM1S (ATCC CRL-2974)
Kind of experiment: Selectivity determination by Western Blot assay in MM1S cells: IKZF1. Further details: key: A represents a no degradation observed at 30 μM; B represents trace degradation at 30 μM (below 20%); C represents weak degradation at 30 μM (below 50%); D represents degradation at 30 μM (>90%); E represents degradation at 3 μM (>90%); F represents degradation at 0.3 μM (>90%). Particulars: MM1S cells, 0.3, 3 and 30 μM, 6 hours. As for the experimental part: CK1alpha/Ikaros/Aiolos/ZFP91 Selectivity determination by Western Blot Assay
MM1S cells were purchased from ATCC (cat. Number CRL-2974), sub-cultured in 90% RPMI 1640 with 10% FBS, supplemented with 1× P/S and incubated at 37° C., 5% CO2. Compounds were stored as 10 mM DMSO stock. For the assay, MM1S cells (3 million cells/well) were plated in 6-well plates and incubated over night. Cells were treated with respective compounds using a serial dilution: 0.3 μM, 3 μM and 30 μM as well as a vehicle only (DMSO) control for 6 hours. Media with suspension cells was subsequently transferred to 15 mL conical tubes, wells rinsed twice with ice-cold PBS and merged with cell suspension in respective 15 mL conical tube. Cells were spinned down, supernatant aspirated, pellets resuspended in ice-cold PBS and transferred to microtubes. Cells were spinned down, supernatant aspirated and pellets resuspended in 120 μL RIPA lysis buffer supplemented with protease and phosphatase inhibitors. Cell lysates were incubated on ice for 20 minutes followed by centrifugation at >20,000×g for 5 mM. Supernatants were transferred to fresh microtubes and stored at −80° C. Total protein concentration was determined using a BCA assay with a BSA standard curve and concentration of all samples was adjusted to 1 mg/mL. 25 μL 4× LDS sample buffer supplemented with 100 mM DTT was added to 75 μL sample. Samples were centrifuged (8,000×g, 1 min) and incubated at 95° C. for […] followed by another centrifugation step (8,000×g, 1 mM). 20 μL of each sample was loaded on a 4-12% gel alongside a protein molecular weight marker. Gels were run in the presence of MOPS buffer at 80 Volts for […], followed by 120 Volts for 1.5 h and proteins subsequently transferred onto nitrocellulose membranes at 20 Volts for 7 mM using an iBlot2 Gel Transfer Device. Membranes were then cut horizontally into two pieces, covering 80-50 kDa and 50-25 kDa. Blocking the membranes was performed by gently shaking in 5% (w/v) skim milk in TSB-T for 1 hr at room temperature. All primary antibodies were used at a 1/1000 in 5% (w/v) BSA dissolved in TBST and incubated with membranes over night at 4° C. After three washes with 1× TBST for 5 mM, HRP-coupled secondary antibodies diluted in 5% (w/v) BSA/TBST (Goat Anti-Rb IgG, dil. 1/10,000; Goat Anti-Mouse IgG, dil. 1/5000) were added for 1 hr at room temperature. After three washes with 1× TBST (5 minutes each), membranes were incubated with ECL reagent for 1 mM at room temperature. Chemiluminescence signals were then detected using a LAS-4000 system with default settings and signals quantified using Image Studio Lite software (version 5.2). Membrane parts previously incubated with antibody against CK1alpha were stripped off antibodies by incubating with stripping buffer for 30 minutes followed by three washed with TBST (5 mM each), blocking with 5% (w/v) skim milk for 1 hr, and incubation with primary antibody against GAPDH overnight at 4° C. Subsequent washes, incubation with secondary antibody and signal acquisition were performed as described above.
Table 5 assigns each compound a code indicating the ability for the degradation of IKZF1, IKZF3, CK1alpha and ZFP91: A, B, C, D, E or F. According to the code, A represents a no degradation observed at 30 μM, B represents trace degradation at 30 μM (below 20%), C represents weak degradation at 30 μM (below 50%), D represents degradation at 30 μM (>90%), E represents degradation at 3 μM (>90%) and F represents degradation at 0.3 μM (>90%).
On the technique in general: A western blot detects proteins with antibodies after separation by electrophoresis.

The subject of experiment [1] is Human mammary epithelial cells (HMEC) engineered to express EGFP alone (non myc). Put plainly: 3D spheroid assay, non myc-HMEC (CellTiterGlo3D viability). The following applies: 120 h, 3D spheroids, 5 days with compound, read-out: Code: EC50 value in the non myc-HMEC assay. In general terms: ATP-based viability assays read luminescence as a measure of living cells.
The subject of experiment [2] is Human mammary epithelial cells (HMEC) engineered to express c-myc tagged with EGFP. Put plainly: 3D spheroid assay, myc-HMEC (CellTiterGlo3D viability).

Like-named read-outs stand apart in the source and are kept apart here.

T1 sequence (Q96SW2 whole entry partner): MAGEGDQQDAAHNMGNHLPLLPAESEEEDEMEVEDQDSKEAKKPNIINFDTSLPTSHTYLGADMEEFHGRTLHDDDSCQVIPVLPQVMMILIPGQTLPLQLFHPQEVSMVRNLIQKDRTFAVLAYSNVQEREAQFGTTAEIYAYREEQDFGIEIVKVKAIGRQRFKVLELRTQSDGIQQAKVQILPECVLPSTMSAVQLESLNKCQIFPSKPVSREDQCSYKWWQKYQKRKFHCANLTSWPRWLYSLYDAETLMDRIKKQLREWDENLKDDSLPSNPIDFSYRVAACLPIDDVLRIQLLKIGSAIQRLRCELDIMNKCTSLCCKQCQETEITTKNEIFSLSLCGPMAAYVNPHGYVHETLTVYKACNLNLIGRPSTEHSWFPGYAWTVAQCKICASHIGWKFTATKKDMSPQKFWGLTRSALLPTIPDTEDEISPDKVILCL
T1 sequence (Q16531 2-1140 partner limits assumed): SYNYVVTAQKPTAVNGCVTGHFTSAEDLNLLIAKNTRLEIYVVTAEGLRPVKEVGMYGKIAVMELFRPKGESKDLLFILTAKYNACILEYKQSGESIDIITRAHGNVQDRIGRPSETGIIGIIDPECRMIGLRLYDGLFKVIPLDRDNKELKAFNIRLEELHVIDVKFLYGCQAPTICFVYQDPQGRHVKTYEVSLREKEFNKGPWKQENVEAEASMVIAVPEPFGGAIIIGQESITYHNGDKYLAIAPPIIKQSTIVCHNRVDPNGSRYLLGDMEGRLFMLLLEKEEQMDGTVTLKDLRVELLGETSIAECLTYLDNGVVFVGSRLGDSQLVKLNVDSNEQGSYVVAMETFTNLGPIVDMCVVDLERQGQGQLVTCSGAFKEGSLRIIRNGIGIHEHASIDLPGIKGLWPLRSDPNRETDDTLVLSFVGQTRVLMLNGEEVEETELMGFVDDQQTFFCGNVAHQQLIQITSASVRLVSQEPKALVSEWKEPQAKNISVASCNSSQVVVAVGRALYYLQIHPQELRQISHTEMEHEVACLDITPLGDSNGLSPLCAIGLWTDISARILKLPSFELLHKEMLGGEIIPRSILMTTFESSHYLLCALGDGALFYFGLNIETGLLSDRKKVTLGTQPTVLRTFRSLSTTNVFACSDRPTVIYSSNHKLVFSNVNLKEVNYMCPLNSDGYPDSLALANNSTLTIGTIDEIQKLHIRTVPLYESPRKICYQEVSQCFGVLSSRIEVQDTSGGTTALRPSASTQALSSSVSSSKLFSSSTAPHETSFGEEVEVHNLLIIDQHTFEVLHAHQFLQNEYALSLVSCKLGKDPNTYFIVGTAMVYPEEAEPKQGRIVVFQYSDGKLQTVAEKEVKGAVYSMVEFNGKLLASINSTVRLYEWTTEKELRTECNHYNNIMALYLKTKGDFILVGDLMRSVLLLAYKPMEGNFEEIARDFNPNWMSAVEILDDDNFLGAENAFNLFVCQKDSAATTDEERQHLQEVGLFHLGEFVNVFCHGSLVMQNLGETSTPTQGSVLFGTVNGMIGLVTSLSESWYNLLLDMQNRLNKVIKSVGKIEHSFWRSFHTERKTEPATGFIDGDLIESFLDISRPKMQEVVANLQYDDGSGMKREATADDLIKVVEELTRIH
T1 sequence (Q13422 whole entry): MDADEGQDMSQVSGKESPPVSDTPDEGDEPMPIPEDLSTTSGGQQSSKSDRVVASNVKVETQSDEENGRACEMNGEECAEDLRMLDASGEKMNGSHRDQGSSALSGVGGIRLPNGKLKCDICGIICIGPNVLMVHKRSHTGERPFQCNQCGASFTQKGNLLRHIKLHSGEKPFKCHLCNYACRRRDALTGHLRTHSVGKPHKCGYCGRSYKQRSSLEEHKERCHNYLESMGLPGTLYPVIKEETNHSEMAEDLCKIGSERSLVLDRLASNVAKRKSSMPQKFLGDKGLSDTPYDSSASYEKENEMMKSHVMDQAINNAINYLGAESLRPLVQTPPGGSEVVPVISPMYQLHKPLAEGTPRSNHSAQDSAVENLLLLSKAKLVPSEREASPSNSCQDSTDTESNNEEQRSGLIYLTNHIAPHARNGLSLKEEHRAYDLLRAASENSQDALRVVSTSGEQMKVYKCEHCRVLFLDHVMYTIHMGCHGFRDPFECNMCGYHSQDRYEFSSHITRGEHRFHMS

Consider `Cc1cc(C)c(NC(=O)NCc2ccc3c(c2)C(=O)N(C2CCC(=O)NC2=O)C3)cc1Cl` (centres unmarked) [Compound 85], for which, on IKZF1, the IKZF1 degradation code result is “A”.

With `O=C1CCC(N2Cc3ccc(CNC(=O)Nc4cccc(CN5CCOCC5)c4)cc3C2=O)C(=O)N1` (centres unmarked) [Compound 105], the IKZF1 degradation code entry on IKZF1 is “B (B represents trace degradation at 30 μM (below 20%))”.

Consider `Cc1ccc(NC(=O)NCc2ccc3c(c2)C(=O)N(C2CCC(=O)NC2=O)C3)c(Cl)c1Cl` (centres unmarked) [Compound 87], for which, on IKZF1, the IKZF1 degradation code entry is listed as “A”. On the same count and under the same terms, then `Cc1c(Cl)cc(NC(=O)NCc2ccc3c(c2)C(=O)N(C2CCC(=O)NC2=O)C3)cc1CC1COCOC1` (centres unmarked) [Compound 132], with “A”. Take `Cc1c(Cl)cc(NC(=O)NCc2ccc3c(c2)C(=O)N(C2CCC(=O)NC2=O)C3)cc1CN(C)C` (centres unmarked) [Compound 75]: the EC50 – broadly, the concentration giving half of the maximal effect – in experiment [1] was greater than 10000 nM. In addition, the IKZF1 degradation code result at IKZF1 is reported as “A”. As for `Cc1ccc(NC(=O)NCc2ccc3c(c2)C(=O)N(C2CCC(=O)NC2=O)C3)cc1Cl` (centres unmarked) [Compound 8], the half-maximal effective concentration (EC50) in experiment [2] (Homo sapiens, HMEC, 120 h, 3D spheroids, 5 days with compound, read-out: Code: EC50 value in the myc-HMEC assay) was no more than 400 nM; in experiment [2] (myc-HMEC 3D spheroids (compounds with code D and E), 5 days, read-out: EC50), 220 nM; in experiment [1], greater than 10000 nM. For the same molecule, the IKZF1 degradation code entry at IKZF1 is given as “A”. Turning to `Cc1c(Cl)cc(NC(=O)NCc2ccc3c(c2)C(=O)N(C2CCC(=O)NC2=O)C3)cc1CN1CCOCC1` (centres unmarked) [Compound 82], the IKZF1 degradation code result on IKZF1 is “A”.
